Results from PubChem BioAssay (NCI).
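Assay format: 96-well plates, 48-hour exposure. TGI is the concentration that stops growth completely.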

How the values were obtained:
Assay in all cases: NCI tumour cell line growth inhibition, 48 h
PC-3 prostate = test system: PC-3 prostate
HCC-2998 colon = test system: HCC-2998 colon
K-562 leukemia = test system: K-562 leukemia
HCT-15 colon = test system: HCT-15 colon
SF-539 CNS = test system: SF-539 CNS
KM12 colon = test system: KM12 colon
RPMI-8226 leukemia = test system: RPMI-8226 leukemia
OVCAR-5 ovarian = test system: OVCAR-5 ovarian
EKVX NSCLC = test system: EKVX NSCLC
OVCAR-3 ovarian = test system: OVCAR-3 ovarian
LOX IMVI melanoma = test system: LOX IMVI melanoma
IGROV1 ovarian = test system: IGROV1 ovarian
A549 NSCLC = test system: A549 NSCLC
SNB-19 CNS = test system: SNB-19 CNS
SK-OV-3 ovarian = test system: SK-OV-3 ovarian
SK-MEL-28 melanoma = test system: SK-MEL-28 melanoma
COLO 205 colon = test system: COLO 205 colon
OVCAR-8 ovarian = test system: OVCAR-8 ovarian
786-0 renal = test system: 786-0 renal
CAKI-1 renal = test system: CAKI-1 renal
HT29 colon = test system: HT29 colon
SF-295 CNS = test system: SF-295 CNS
T-47D breast = test system: T-47D breast
MALME-3M melanoma = test system: MALME-3M melanoma
ACHN renal = test system: ACHN renal
UO-31 renal = test system: UO-31 renal
TK-10 renal = test system: TK-10 renal
NCI-H460 lung = test system: NCI-H460 lung
BT-549 breast = test system: BT-549 breast
UACC-62 melanoma = test system: UACC-62 melanoma
M14 melanoma = test system: M14 melanoma
OVCAR-4 ovarian = test system: OVCAR-4 ovarian
MOLT-4 leukemia = test system: MOLT-4 leukemia
SR leukemia = test system: SR leukemia
NCI/ADR-RES ovarian = test system: NCI/ADR-RES ovarian
MDA-MB-435 = test system: MDA-MB-435
NCI-H23 lung = test system: NCI-H23 lung
U251 CNS = test system: U251 CNS
SN12C renal = test system: SN12C renal
HCT-116 colon = test system: HCT-116 colon
HS 578T breast = test system: HS 578T breast
MCF7 breast = test system: MCF7 breast
SK-MEL-5 melanoma = test system: SK-MEL-5 melanoma
HOP-62 NSCLC = test system: HOP-62 NSCLC
SF-268 CNS = test system: SF-268 CNS
SNB-75 CNS = test system: SNB-75 CNS
NCI-H522 lung = test system: NCI-H522 lung
DU-145 prostate = test system: DU-145 prostate
CCRF-CEM leukemia = test system: CCRF-CEM leukemia
MDA-MB-231 breast = test system: MDA-MB-231 breast
MDA-N = test system: MDA-N
UACC-257 melanoma = test system: UACC-257 melanoma
A498 renal = test system: A498 renal
SW-620 colon = test system: SW-620 colon
HOP-92 NSCLC = test system: HOP-92 NSCLC
RXF 393 renal = test system: RXF 393 renal
SK-MEL-2 melanoma = test system: SK-MEL-2 melanoma
NCI-H226 lung = test system: NCI-H226 lung

CO/N=C(\C(=O)Nc1cncs1)c1csc(N)n1
TGI (PC-3 prostate): > 10 µM
TGI (HCC-2998 colon): > 10 µM
TGI (K-562 leukemia): > 10 µM
TGI (HCT-15 colon): > 10 µM
TGI (SF-539 CNS): > 10 µM
TGI (KM12 colon): > 10 µM
TGI (RPMI-8226 leukemia): > 10 µM
TGI (OVCAR-5 ovarian): > 10 µM
TGI (EKVX NSCLC): > 10 µM
TGI (OVCAR-3 ovarian): > 10 µM
TGI (LOX IMVI melanoma): > 10 µM
TGI (IGROV1 ovarian): > 10 µM
TGI (A549 NSCLC): > 10 µM
TGI (SNB-19 CNS): > 10 µM
TGI (SK-OV-3 ovarian): > 10 µM
TGI (SK-MEL-28 melanoma): > 10 µM
TGI (COLO 205 colon): > 10 µM
TGI (OVCAR-8 ovarian): > 10 µM
TGI (786-0 renal): > 10 µM
TGI (CAKI-1 renal): > 10 µM
TGI (HT29 colon): > 10 µM
TGI (SF-295 CNS): > 10 µM
TGI (T-47D breast): > 10 µM
TGI (MALME-3M melanoma): > 10 µM
TGI (ACHN renal): > 10 µM
TGI (UO-31 renal): > 10 µM
TGI (TK-10 renal): > 10 µM
TGI (NCI-H460 lung): > 10 µM
TGI (BT-549 breast): > 10 µM
TGI (UACC-62 melanoma): > 10 µM
TGI (M14 melanoma): > 10 µM
TGI (OVCAR-4 ovarian): > 10 µM
TGI (MOLT-4 leukemia): > 10 µM
TGI (SR leukemia): > 10 µM
TGI (NCI/ADR-RES ovarian): > 10 µM
TGI (MDA-MB-435): > 10 µM
TGI (NCI-H23 lung): > 10 µM
TGI (U251 CNS): > 10 µM
TGI (SN12C renal): > 10 µM
TGI (HCT-116 colon): > 10 µM
TGI (HS 578T breast): > 10 µM
TGI (MCF7 breast): > 10 µM
TGI (SK-MEL-5 melanoma): > 10 µM
TGI (HOP-62 NSCLC): > 10 µM
TGI (SF-268 CNS): > 10 µM
TGI (SNB-75 CNS): > 10 µM
TGI (NCI-H522 lung): > 10 µM
TGI (DU-145 prostate): > 10 µM
TGI (CCRF-CEM leukemia): > 10 µM
TGI (MDA-MB-231 breast): > 10 µM
TGI (MDA-N): > 10 µM
TGI (UACC-257 melanoma): > 10 µM
TGI (A498 renal): > 10 µM
TGI (SW-620 colon): > 10 µM
TGI (HOP-92 NSCLC): > 10 µM

CCC(c1ccc2cc(O)ccc2c1)C(C)(C)C(=O)O (configuration not stated)
TGI (PC-3 prostate): > 100 µM
TGI (HCC-2998 colon): > 100 µM
TGI (K-562 leukemia): > 100 µM
TGI (RXF 393 renal): > 100 µM
TGI (HCT-15 colon): > 100 µM
TGI (SF-539 CNS): > 100 µM
TGI (KM12 colon): > 100 µM
TGI (RPMI-8226 leukemia): > 100 µM
TGI (OVCAR-5 ovarian): > 100 µM
TGI (EKVX NSCLC): > 100 µM
TGI (OVCAR-3 ovarian): > 100 µM
TGI (LOX IMVI melanoma): > 100 µM
TGI (IGROV1 ovarian): > 100 µM
TGI (A549 NSCLC): > 100 µM
TGI (SNB-19 CNS): > 100 µM
TGI (SK-MEL-2 melanoma): > 100 µM
TGI (SK-OV-3 ovarian): > 100 µM
TGI (SK-MEL-28 melanoma): > 100 µM
TGI (COLO 205 colon): > 100 µM
TGI (OVCAR-8 ovarian): > 100 µM
TGI (786-0 renal): > 100 µM
TGI (CAKI-1 renal): > 100 µM
TGI (HT29 colon): > 100 µM
TGI (SF-295 CNS): > 100 µM
TGI (T-47D breast): > 100 µM
TGI (MALME-3M melanoma): > 100 µM
TGI (ACHN renal): > 100 µM
TGI (UO-31 renal): > 100 µM
TGI (TK-10 renal): > 100 µM
TGI (NCI-H460 lung): > 100 µM
TGI (BT-549 breast): > 100 µM
TGI (UACC-62 melanoma): > 100 µM
TGI (M14 melanoma): > 100 µM
TGI (OVCAR-4 ovarian): > 100 µM
TGI (MOLT-4 leukemia): > 100 µM
TGI (SR leukemia): > 100 µM
TGI (NCI/ADR-RES ovarian): > 100 µM
TGI (MDA-MB-435): > 100 µM
TGI (NCI-H23 lung): > 100 µM
TGI (U251 CNS): > 100 µM
TGI (SN12C renal): > 100 µM
TGI (HCT-116 colon): > 100 µM
TGI (HS 578T breast): > 100 µM
TGI (MCF7 breast): > 100 µM
TGI (SK-MEL-5 melanoma): > 100 µM
TGI (HOP-62 NSCLC): > 100 µM
TGI (SF-268 CNS): > 100 µM
TGI (SNB-75 CNS): > 100 µM
TGI (NCI-H522 lung): > 100 µM
TGI (DU-145 prostate): > 100 µM
TGI (MDA-MB-231 breast): > 100 µM
TGI (MDA-N): > 100 µM
TGI (UACC-257 melanoma): > 100 µM
TGI (A498 renal): > 100 µM
TGI (SW-620 colon): > 100 µM
TGI (NCI-H226 lung): > 100 µM
TGI (HOP-92 NSCLC): > 100 µM
